Test results reported in patent US12286440B2, “Penam derivative or salt thereof, pharmaceutical composition, and applications thereof” (priority 2018, dated 2025).

Each compound was assayed on multidrug-resistant Pseudomonas aeruginosa strain (S-2838 strain) (assay: Test for protection against systemic infection in mouse with multidrug-resistant Pseudomonas aeruginosa). Details: sc, 72 h, read-out: survival rate.
Type: in vivo, ICR male SPF mice
Experimental: As mice, ICR male SPF mice (4 weeks old: 10 mice per group) were used. Clinically isolated multidrug-resistant Pseudomonas aeruginosa strain (S-2838 strain) cultured overnight on a Mueller-Hinton agar plate at 37° C. was cultured on a cation-adjusted Mueller Hinton medium for 5 hours, and then diluted 20-fold with a 10% mucin/phosphate buffer, thereby preparing an inoculum. An infection was induced by intraperitoneally inoculating the mice with the inoculum at 0.5 mL (about 10^6 CFU/mouse). Each test compound was dissolved in physiological saline, and 1 hour after the infection, the compound was subcutaneously administered once to the mice at 40 mg/kg. The control group was administered with the same amount of physiological saline used as a vehicle. The number of surviving mice was recorded 3 days after the infection.
A test for protection against systemic infection in a mouse with multidrug-resistant Pseudomonas aeruginosa was performed in the same manner as in Test Example 2.

Structure (SMILES) | responders at 40 mg/kg [%]
CC(C)(O/N=C(\C(=O)N[C@@H]1C(=O)N2C[C@@](C(=O)O)(N3CCN(NC(=O)/C(=N\O)c4ccc(O)c(O)c4Cl)C3=O)S[C@H]12)c1csc(N)n1)C(=O)O [Example 117, (3R,5R,6R)-6-((Z)-2-(2-aminothiazol-4-yl)-2-(((2-carboxypropan-2-yl)oxy)imino)acetamido)-3-(3-((Z)-2-(2-chloro-3,4-dihydroxyphenyl)-2-(hydroxyimino)acetamido)-2-oxoimidazolidin-1-yl)-7-oxo-4-thia-1-azabicyclo[3.2.0]heptane-3-carboxylate] | ≥ 90
CC(C)(O/N=C(\C(=O)N[C@@H]1C(=O)N2C[C@@](C(=O)O)(N3CCN(NC(=O)C(=O)c4ccc(O)c(O)c4Cl)C3=O)S[C@H]12)c1csc(N)n1)C(=O)O [Example 20, (3R,5R,6R)-6-((Z)-2-(2-aminothiazol-4-yl)-2-(((2-carboxypropan-2-yl)oxy)imino)acetamido)-3-(3-(2-(2-chloro-3,4-dihydroxyphenyl)-2-oxoacetamido)-2-oxoimidazolidin-1-yl)-7-oxo-4-thia-1-azabicyclo[3.2.0]heptane-3-carboxylate] | ≥ 90
CC[C@H](O/N=C(\C(=O)N[C@@H]1C(=O)N2C[C@@](C(=O)O)(N3CCN(NC(=O)C(=O)c4ccc(O)c(O)c4Cl)C3=O)S[C@H]12)c1csc(N)n1)C(=O)O [Example 105, (3R,5R,6R)-6-((Z)-2-(2-aminothiazol-4-yl)-2-(((S)-1-carboxypropoxy)imino)acetamido)-3-(3-(2-(2-chloro-3,4-dihydroxyphenyl)-2-oxoacetamido)-2-oxoimidazolidin-1-yl)-7-oxo-4-thia-1-azabicyclo[3.2.0]heptane-3-carboxylate] | ≥ 90
CC(C)[C@H](O/N=C(\C(=O)N[C@@H]1C(=O)N2C[C@@](C(=O)O)(N3CCN(NC(=O)C(=O)c4ccc(O)c(O)c4Cl)C3=O)S[C@H]12)c1csc(N)n1)C(=O)O [Example 114, (3R,5R,6R)-6-((Z)-2-(2-aminothiazol-4-yl)-2-(((S)-1-carboxy-2-methylpropoxy)imino)acetamido)-3-(3-(2-(2-chloro-3,4-dihydroxyphenyl)-2-oxoacetamido)-2-oxoimidazolidin-1-yl)-7-oxo-4-thia-1-azabicyclo[3.2.0]heptane-3-carboxylate] | ≥ 90
CC(C)(O/N=C(\C(=O)N[C@@H]1C(=O)N2C[C@@](C(=O)O)(N3CCN(NC(=O)c4cc(Cl)c(O)c(O)c4Cl)C3=O)S[C@H]12)c1csc(N)n1)C(=O)O [Example 83, (3R,5R,6R)-6-((Z)-2-(2-aminothiazol-4-yl)-2-(((2-carboxypropan-2-yl)oxy)imino)acetamido)-3-(3-(2,5-dichloro-3,4-dihydroxybenzamido)-2-oxoimidazolidin-1-yl)-7-oxo-4-thia-1-azabicyclo[3.2.0]heptane-3-carboxylate] | ≥ 90
COC[C@@H](NC(=O)C(=O)c1ccc(O)c(O)c1Cl)C(=O)NN1CCN([C@]2(C(=O)O)CN3C(=O)[C@@H](NC(=O)/C(=N\OC(C)(C)C(=O)O)c4csc(N)n4)[C@H]3S2)C1=O [Example 139, (3R,5R,6R)-6-((Z)-2-(2-aminothiazol-4-yl)-2-(((2-carboxypropan-2-yl)oxy)imino)acetamido)-3-(3-((R)-2-(2-(2-chloro-3,4-dihydroxyphenyl)-2-oxoacetamido)-3-methoxypropanamido)-2-oxoimidazolidin-1-yl)-7-oxo-4-thia-1-azabicyclo[3.2.0]heptane-3-carboxylate] | ≥ 90
CC(C)(O/N=C(\C(=O)N[C@@H]1C(=O)N2C[C@@](C(=O)O)(N3CCN(NC(=O)C(=O)c4ccc(O)c(O)c4Cl)C3=O)S[C@H]12)c1nsc(N)n1)C(=O)O [Example 23, (3R,5R,6R)-6-((Z)-2-(5-amino-1,2,4-thiadiazol-3-yl)-2-(((2-carboxypropan-2-yl)oxy)imino)acetamido)-3-(3-(2-(2-chloro-3,4-dihydroxyphenyl)-2-oxoacetamido)-2-oxoimidazolidin-1-yl)-7-oxo-4-thia-1-azabicyclo[3.2.0]heptane-3-carboxylate] | ≥ 90
Nc1nc(/C(=N/OC2(C(=O)O)CC2)C(=O)N[C@@H]2C(=O)N3C[C@@](C(=O)O)(N4CCN(NC(=O)C(=O)c5ccc(O)c(O)c5Cl)C4=O)S[C@H]23)cs1 [Example 21, (3R,5R,6R)-6-((Z)-2-(2-aminothiazol-4-yl)-2-((1-carboxycyclopropoxy)imino)acetamido)-3-(3-(2-(2-chloro-3,4-dihydroxyphenyl)-2-oxoacetamido)-2-oxoimidazolidin-1-yl)-7-oxo-4-thia-1-azabicyclo[3.2.0]heptane-3-carboxylate] | ≥ 90
Nc1nc(/C(=N/OC2(C(=O)O)CC2)C(=O)N[C@@H]2C(=O)N3C[C@@](C(=O)O)(N4CCN(NC(=O)CCNC(=O)C(=O)c5ccc(O)c(O)c5Cl)C4=O)S[C@H]23)cs1 [Example 31, (3R,5R,6R)-6-((Z)-2-(2-aminothiazol-4-yl)-2-((1-carboxycyclopropoxy)imino)acetamido)-3-(3-(3-(2-(2-chloro-3,4-dihydroxyphenyl)-2-oxoacetamido)propanamido)-2-oxoimidazolidin-1-yl)-7-oxo-4-thia-1-azabicyclo[3.2.0]heptane-3-carboxylate] | ≥ 90
CC(C)(O/N=C(\C(=O)N[C@@H]1C(=O)N2C[C@@](C(=O)O)(N3CCN(NC(=O)C(=O)c4ccc(O)c(O)c4Cl)C3=O)S[C@H]12)c1nc(N)sc1Cl)C(=O)O [Example 22, (3R,5R,6R)-6-((Z)-2-(2-amino-5-chlorothiazol-4-yl)-2-(((2-carboxypropan-2-yl)oxy)imino)acetamido)-3-(3-(2(2-chloro-3,4-dihydroxyphenyl)-2-oxoacetamido)-2-oxoimidazolidin-1-yl)-7-oxo-4-thia-1-azabicyclo[3.2.0]heptane-3-carboxylate] | ≥ 90
CC(C)(O/N=C(\C(=O)N[C@@H]1C(=O)N2C[C@@](C(=O)O)(N3CCN(NC(=O)C(=O)c4ccc(O)c(O)c4Cl)C(=O)C3=O)S[C@H]12)c1csc(N)n1)C(=O)O [Example 126, (3R,5R,6R)-6-((Z)-2-(2-aminothiazol-4-yl)-2-(((2-carboxypropan-2-yl)oxy)imino)acetamido)-3-(4-(2-(2-chloro-3,4-dihydroxyphenyl)-2-oxoacetamido)-2,3-dioxopiperazin-1-yl)-7-oxo-4-thia-1-azabicyclo[3.2.0]heptane-3-carboxylate] | ≥ 90
CC(C)(O/N=C(\C(=O)N[C@@H]1C(=O)N2C[C@@](C(=O)O)(N3CCN(NC(=O)CCNC(=O)/C(=N\O)c4ccc(O)c(O)c4Cl)C3=O)S[C@H]12)c1csc(N)n1)C(=O)O [Example 122, (3R,5R,6R)-6-((Z)-2-(2-aminothiazol-4-yl)-2-(((2-carboxypropan-2-yl)oxy)imino)acetamido)-3-(3-(3-((Z)-2-(2-chloro-3,4-dihydroxyphenyl)-2-(hydroxyimino)acetamido)propanamido)-2-oxoimidazolidin-1-yl)-7-oxo-4-thia-1-azabicyclo[3.2.0]heptane-3-carboxylate] | ≥ 90
